Data on 29 compounds can be found in EP1150982B1, “PURINE INHIBITORS OF CYCLIN DEPENDENT KINASE 2 AND IkB-alpha” (CV THERAPEUTICS, INC., priority 1999, dated 2000).

In brackets after ≈: the same amount, converted by molar mass. Read-outs that look alike come from different tables or passages of the source.

For assay [1], the target named is IκB-α kinase. Kind of assay: IκB-α kinase assay (filter assay of affinity enriched IκB-α kinase from LPS-activated HUVEC lysate). The class given is biochemical, human. Conditions: Table 11, Enzyme Activity of Selected Compounds.
Assay [2] concerns the target CDK2 (Homo sapiens, UniProt P24941). The experiment in a line: biochemical. Conditions: concentration required to inhibit CDK2 activity by 50%; 30 µM ATP, histone H1, 30°C for 30 min; read-out: IC50 (µg/mL) enzyme (converted). The protocol:
Compounds of this invention were assayed to determine their CDK2 inhibitory activity. The assay system (total volume of 50 µl) contained 50 mM Tris-HCl, pH 7.4, 10 mM MgCl2, 5 mM DTT, 1 µg of histone H1, 30 µM ATP (1 µCi of gamma^32P labeled ATP), 10 µg of BSA and 1 ng of purified CDK2. After incubation at 30°C for 30 min, the reaction was terminated by the addition of 10 µl of 10% TCA and the samples were blotted onto nitrocellulose filters. These filters were washed extensively in 10% TCA and assayed for radioactivity. Blanks contained no enzyme. […] After incubation at 30 min., the assay tubes were processed as above.

Assay [3] relates to rat aortic smooth muscle cells. Kind of assay: tissue or blood. The assay is classed as cell-based. Particulars: read-out: IC50 (µg/mL) cells. The protocol: (§1) Early passage rat aortic smooth muscle cells (CV Therapeutics Cell repository) were seeded in 48 well dishes (Falcon, […]) at a density of 20,000 cells/ml of DME containing 5% heat inactivated bovine serum. The cells were incubated in a standard tissue culture incubator for 48 hr. The medium was aspirated and the wells were replenished with 0.2 ml of fresh medium. […]

The subject of assay [4] is P388 - mouse lymphoid neoplasm. Kind of assay: Cell proliferation assay, P388. Conditions: P388 cells, read-out: IC50 (µg/ml) for Inhibition of Cell Proliferation P 388. The assay is classed as cell-based.
Assay [5] has as its system Pancl human pancreatic adenocarcinoma. Kind of assay: Cell proliferation assay, Pancl. The class given is cell-based. Conditions: Pancl cells, read-out: IC50 (µg/ml) for Inhibition of Cell Proliferation Panel. As to the method: as §1
(§2) Similar assays were performed using the following cell lines: P388 - mouse lymphoid neoplasm; L1210 - mouse lymphocytic leukemia; Caco2 human colon adenocarcinoma; MCF7 human breast adenocarcinoma; PupVSMC rat neonatal aortic smooth muscle cells; Ovcar human ovarian Carcinoma; Pancl human pancreatic adenocarcinoma; and HUVEC human umbilical cord endothelial cells.

For assay [6], the system named is Ovcar human ovarian Carcinoma. Kind of assay: Cell proliferation assay, Ovcar. The assay is classed as cell-based. Particulars: Ovcar cells, read-out: IC50 (µg/ml) for Inhibition of Cell Proliferation OvC ar. As to the method:
as §1, §2

Assay [7] concerns PupVSMC rat neonatal aortic smooth muscle cells. Kind of assay: Cell proliferation assay, PupVSMC. The assay is classed as cell-based. As to the method: (§3) Early passage rat aortic smooth muscle cells (CV Therapeutics Cell repository) were seeded in 48 well dishes (Falcon, […]) at a density of 20,000 cells/ml of DME containing 5% heat inactivated bovine serum. The cells were incubated in a standard tissue culture incubator for 48 hr. The medium was aspirated and the wells were replenished with 0.2 ml of fresh medium. Compounds of this invention were added at concentrations ranging from 100 to 0.37 µg/ml. After 48 hr incubation, the medium was aspirated and the cultures were treated with 0.2 ml of saline and 0.25 µl of phenazine methosulfate solution containing MTS (Cell Titer 96® Aqueous Non-radioactive cell proliferation assay kit, Catalog # G 5430, Promega, 2800 Woods Hollow Road, Madison, WI 53711-5399). […]
as §2

The test system of assay [8] is neointima formation following balloon angioplasty in the rat carotid artery. Kind of assay: Neointima formation following balloon angioplasty, rat carotid artery model. The class given is in vivo. Particulars: 14 days recovery. From the text: In this example, the left common carotid arteries of adult male rats (n=10 per experimental group) were surgically injured using a Fogarty arterial embolectomy catheter. Immediately after injury, the common carotid artery was bisected with a vascular clamp, thereby establishing an untreated and treated segment. A drug delivery catheter was then inserted into the distal half of the common carotid. After drug delivery, the catheter was removed and excess drug was washed out by removing the vascular clamp and re-establishing blood flow before closing the artery. […] The harvested tissue was sectioned and the neointimal area was digitized and measured with a computer planimetry system.

The subject of assay [9] is L1210 - mouse lymphocytic leukemia. Kind of assay: cells. The assay is classed as cell-based. Conditions: read-out: IC50 (µg/ml) for Inhibition of Cell Proliferation L 120. The protocol:
as §3, §2

The test system of assay [10] is Caco2 human colon adenocarcinoma. The experiment in a line: cells. The assay is classed as cell-based. Conditions: Caco-2, read-out: IC50 (µg/ml) for Inhibition of Cell Proliferation Caco 2. As to the method:
as §3, §2

Assay [11] has as its system MCF7 human breast adenocarcinoma. The experiment in a line: Cell proliferation assay, MCF7. Particulars: MCF7 cells, read-out: IC50 (µg/ml) for Inhibition of Cell Proliferation MCF 7. The class given is cell-based. The protocol: as §1, §2
In assay [12] the test system is mammalian cells in culture. Conditions: literature; cited from earlier work.
Setting [13] is: inhibitory activity against the cell line, Table 9, unit inferred, read-out: PupVSMC.

The compound `CC(C)n1cnc2c(Nc3cccc(-c4ccc(C#N)cc4)c3)nc(N(CCO)CCO)nc21` yielded an IC50 in assay [1] of 2.2 µM. The same measure, in the same setting: the value for `CC(C)n1cnc2c(NCc3ccc(-c4ccccn4)cc3)nc(N(CCO)CCO)nc21` was 4.5 µM; that for `COc1cccc(-c2ccc(CNc3nc(N(CCO)CCO)nc4c3ncn4C(C)C)cc2)c1` was more than 10 µM. On the same count and under the same terms, with `COc1ccc(-c2ccc(CNc3nc(N(CCO)CCO)nc4c3ncn4C(C)C)cc2)cc1` the figure was 11 µM. On the same count and under the same terms, with `CC(C)n1cnc2c(Nc3ccc(Br)cc3)nc(N(CCO)CCO)nc21` the figure was 14 µM. Turning to `COC(=O)c1ccc(Cn2cnc3c(NCc4ccc(OC)cc4)nc(Cl)nc32)cc1`, the IC50 in assay [2] is more than 137 µM. As to `COc1ccc(CNc2nc(N(CCO)CCO)nc3c2ncn3C(C)C)cc1`, the IC50 in [3] (Rattus norvegicus, 48 h) is 2.1 µg/mL (≈ 5.24 µM).

As for `COc1ccc(CNc2nc(Cl)nc3c2ncn3C(F)(F)F)cc1`, the IC50 in [2] was more than 168 µM. In the case of `CCN(CC)c1nc(NCc2ccc(-c3ccccc3)cc2)c2ncn(C(C)C)c2n1`, the IC50 in [1] was more than 2.4 µM. On the same count and under the same terms, the value for `CC(C)n1cnc2c(NCc3ccc(-c4ccccc4)cc3)nc(NCCO)nc21` was 2.5 µM.

On to `CC(C)n1cnc2c(NCc3ccc(Cl)cc3)nc(N(CCN)CCO)nc21`, for which the IC50 in assay [3] (concentration required to inhibit cell proliferation by 50%, rat aortic smooth muscle cells, 48 hr incubation, MTS) stood at 0.2 µg/mL (≈ 0.495 µM). Regarding `CC(C)n1cnc2c(NCc3ccc(Cl)cc3)nc(NCCNCCO)nc21`, the IC50 in [2] was 5 µM. On the same count and under the same terms, the value for `CC(C)n1cnc2c(NCc3ccc(S(N)(=O)=O)cc3)nc(NCCN)nc21` was 22.2 µM. Same read-out and setting: with `CC(C)Cn1cnc2c(NCc3ccc(C(F)(F)F)cc3)nc(N(CCO)CCO)nc21` the figure was 130 µM; with `CC(C)n1cnc2c(NCc3ccc(C(F)(F)F)cc3)nc(N(CCO)CCO)nc21`, 1.28 µM.

Consider `COc1ccc(CNc2nc(N3CCOCC3)nc3c2ncn3C(C)C)cc1`, for which the IC50 was more than 5 µg/mL in assay [4], 5.5 µg/mL (≈ 14.4 µM) in assay [5] and 4 µg/mL (≈ 10.5 µM) in assay [6]. For `CC(C)n1cnc2c(NCc3ccc(Cl)cc3)nc(N(CCN)CCO)nc21` [2-[(2-aminoethyl)(6-{[(4-chlorophenyl)methyl]amino}-9-(methylethyl)purin-2-yl)amino]ethan-1-ol], the IC50 in [7] (setting [13]) stood at 0.3 µg/mL (≈ 0.743 µM).

With `CC(C)n1cnc2c(NCc3ccc(Cl)cc3)nc(N(CCO)CCO)nc21` [2-[(2-hydroxyethyl)(6-{[(4-chlorophenyl)methyl]amino}-9-(methylethyl)purin-2-yl)amino]ethan-1-ol], the IC50 in [7] (setting [13]) was 0.3 µg/mL (≈ 0.741 µM).

`CC(C)n1cnc2c(NCc3ccc(-c4ccccc4)cc3)nc(N(CCO)CCO)nc21` [2-diethanolamino-6-(4-phenylbenzylamino)-9-isopropyl purine]: the figures for the IC50 in [1], in assay [4] and in assay [5] were 1.1 µM, less than 1 µg/mL and 1.3 µg/mL (≈ 2.91 µM), respectively. Consider `Clc1ccc(COc2nc(Cl)nc3[nH]cnc23)cc1` [4-chlorobenzyloxy; H; C1], for which the IC50 in [2] was 203 µM.

As for `Cn1cnc2c(OCc3ccc(Cl)cc3)nc(Cl)nc21` [4-chlorobenzyloxy; Me; C1], the IC50 in [2] was 194 µM. Same read-out and setting: the value for `COc1ccc(CNc2nc(Cl)nc3c2ncn3CC(C)C)cc1` [4-methoxybenzylamino; 2-methylpropyl; C1] was 173 µM; that for `COc1ccc(CNc2nc(Cl)nc3[nH]cnc23)cc1` [4-methoxybenzylamino; H; C1] was 207 µM.

With `COc1ccc(CNc2nc(N(CCO)CCO)nc3c2ncn3C(C)C)cc1` [Compound 3, 2-diethanolamino-6-(4-methoxybenzylamino)-9-isopropylarine], in [7] (setting [13]), the IC50 stood at 0.4 µg/mL (≈ 0.999 µM). The “reduced the neointimal area” value in assay [8] (Figure 1, acute local delivery, saline vehicle alone 6%) is listed as “about 88%”.

In the case of `CC(C)n1cnc2c(Nc3ccc(-c4ccccc4)cc3)nc(N(CCO)CCO)nc21` [Compound 6, 2-diethanolamino-6-(4-phenylanilino)-9-isopropylpurine], the IC50 amounted to 4 µg/mL (≈ 9.25 µM) in assay [9]; 0.5 µg/mL (≈ 1.16 µM) in assay [10]; 1 µg/mL (≈ 2.31 µM) in [7] (VSMC, PupVSMC cells, Table 8, read-out: IC50 (µg/ml) for Inhibition of Cell Proliferation Pup VS MC); 1 µg/mL (≈ 2.31 µM) in [4]; 4 µg/mL (≈ 9.25 µM) in assay [5]; 4 µg/mL (≈ 9.25 µM) in assay [11]. Moreover, the IC50 in assay [6] was found to be 7 µg/mL (≈ 16.2 µM). In assay [1], `CSc1ccc(Nc2nc(N(CCO)CCO)nc3c2ncn3C(C)C)cc1` [Compound 6A, 2-diethanolamine-6-(4-methylmercapto) anilino-9-isopropylpurine] registered an IC50 of 12.4 µM. As to `Cn1cnc2c(NCc3ccccc3)nc(NCCO)nc21` [olomoucine, 2-(hydroxyethylamino)-6-benzylamino-9-methylpurine], the “inhibits cell proliferation at an approximate concentration” value in assay [12] was approximately 50 µg/mL. `CC(C)n1cnc2c(NCc3ccc(Cl)cc3)nc(NCCN)nc21` [{2-[(2-aminoethyl)amino]-9-(methylethyl)purin-6-yl}[(4-chlorophenyl)methyl]amine]: the IC50 in assay [7] (setting [13]) was determined as 0.1 µg/mL (≈ 0.278 µM). Moreover, the “reducing the neointimal area” value in [8] (acute local delivery, dose of 5 mg/mL, saline alone 6%) is listed as “about 90%”.

Regarding `CC(N)CNc1nc(NCc2ccc(Cl)cc2)c2ncn(C(C)C)c2n1` (centres unmarked) [{2-[(2-aminopropyl)amino]-9-(methylethyl)purin-6-yl}[(4-chlorophenyl)methyl]amine], the IC50 in assay [7] (setting [13]) is 0.1 µg/mL (≈ 0.267 µM).
